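96-well plates; 48 h exposure; 5 concentrations. Endpoints by linear interpolation between flanking doses. Not reached: highest tested concentration assigned. GI50 = concentration required for 50% inhibition of growth. The concentration for full growth arrest is given as TGI.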
Assays:
Test in all cases: NCI anticancer screen, dose series, 48 h
[1] = test system: HCT-116 colon
[2] = test system: SF-539 CNS
[3] = test system: MCF7 breast
[4] = test system: M14 melanoma
[5] = test system: OVCAR-8 ovarian
[6] = test system: T-47D breast
[7] = test system: HOP-92 NSCLC
[8] = test system: RXF 393 renal
[9] = test system: IGROV1 ovarian
[10] = test system: EKVX NSCLC

Compound	GI50 [1] [µM]	TGI [1] [µM]	GI50 [2] [µM]	TGI [2] [µM]	GI50 [3] [µM]	TGI [3] [µM]	GI50 [4] [µM]	TGI [4] [µM]	GI50 [5] [µM]	TGI [5] [µM]	GI50 [6] [µM]	TGI [6] [µM]	GI50 [7] [µM]	TGI [7] [µM]	GI50 [8] [µM]	TGI [8] [µM]	GI50 [9] [µM]	TGI [9] [µM]	TGI [10] [µM]	GI50 [10] [µM]
CCOC(=O)N1CCN(c2nc(Nc3cc(C)[nH]n3)c3ccccc3n2)CC1	2.13	21.3	1.92	9.7	4.61	> 100	9.16	28.9	8.63	63.2	4.83	70.7	1.92	11.9	1.11	5.01	0.638	35.5	–	–
O=C(O)CCCCCCC[C@H]1S[C@H]1CCCCCCO	–	> 100	–	> 100	–	–	–	> 100	–	> 100	–	–	–	–	–	> 100	–	> 100	> 100	–
COC(=O)N(C(=O)OC)C(C(=O)O)C(C)C (centres undefined)	–	–	–	> 100	–	–	–	> 100	–	> 100	–	–	–	> 100	–	> 100	–	–	> 100	–
COc1ccc2c(c1)C(=O)c1c-2n(CCCN=[N+]=[N-])c(=O)c2cc(OC)c(OC)cc12	27.8	> 100	56.5	> 100	81.4	> 100	–	–	> 100	> 100	> 100	> 100	9.13	44.6	–	–	16	> 100	> 100	> 100
Cc1ccc(C)c2c1C(O)(C#Cc1ccccc1)c1ccccc1C2(O)C#Cc1ccccc1 (centres undefined)	3.04	> 100	3.42	> 79.3	2.47	> 100	3.6	> 82.5	3.82	> 100	2	> 27.5	2.29	> 27.3	–	–	3.05	51.3	> 29	3.36
COc1ccc(Nc2nc3ccc(C(F)(F)F)cc3nc2-c2ccccc2)cc1OC	–	> 100	–	> 100	–	–	–	> 100	–	> 100	–	–	–	36.9	–	83.6	–	> 100	80.3	–
C=C(COC(C)=O)CC(OC(C)=O)c1ccccc1 (centres undefined)	–	> 100	–	> 100	–	–	–	> 100	–	> 100	–	–	–	> 100	–	> 100	–	> 100	> 100	–
Cc1ccc(SC(CCC(Sc2ccc(C)cc2)Sc2ccc(C)cc2)Sc2ccc(C)cc2)cc1	–	> 100	–	> 100	–	–	–	> 100	–	> 100	–	–	–	> 100	–	> 100	–	> 100	> 100	–
COc1cccc(-c2cc(=O)c3cc(OC)ccc3[nH]2)c1	0.0541	22.6	–	0.451	0.296	> 100	0.084	41.5	0.79	–	–	–	7.15	–	0.0144	0.224	0.25	> 100	> 100	5.85
C=C1C(O)C2C(=C(CCc3ccccc3)C13CC3)C(=O)C(C)(CO)C2O (centres undefined)	–	–	> 100	> 100	53.5	> 100	> 100	> 100	> 100	> 100	–	–	12.5	> 100	> 100	> 100	> 100	> 100	> 100	> 100
O=C1Nc2ccccc2C12CCNC2Cc1ccccc1 (centres undefined)	–	> 100	–	> 100	–	–	–	> 100	–	> 100	–	–	–	> 100	–	–	–	> 100	> 100	–
COc1ccc(-c2cn[nH]c2-c2cc(OC)c3c(c2)OCO3)cc1	0.277	11.7	0.193	0.539	0.116	15.8	0.207	12.9	0.423	15.1	–	–	0.417	20.8	0.176	0.684	0.984	26.7	–	–
Cn1cc(C2=C(c3cn(CCCCN)c4ccccc34)C(=O)NC2=O)c2ccccc21	> 25	> 25	> 25	> 25	> 25	> 25	> 25	> 25	> 25	> 25	> 25	> 25	–	–	> 25	> 25	> 25	> 25	–	–
CCC12CCCN(Cc3ccccc3)C1c1c([nH]c3ccccc13)C(C(=O)OC)C2 (centres undefined)	–	> 10	–	> 10	–	> 10	–	> 10	–	> 10	–	> 10	–	> 10	–	–	–	> 10	–	–
CC1CCC2(CC1)NN=c1s/c(=C\c3ccc(O)cc3)c(=O)n1N2 (centres undefined)	–	> 100	–	> 100	–	–	–	> 100	–	> 100	–	–	–	–	–	> 100	–	> 100	> 100	–
CC(C)CC(NC(=O)c1cccc(O)c1O)C(=O)NCc1cc(CNC(=O)C(CC(C)C)NC(=O)c2cccc(O)c2O)cc(CNC(=O)C(CC(C)C)NC(=O)c2cccc(O)c2O)c1 (centres undefined)	–	38.4	–	20.9	–	–	–	–	–	> 100	–	–	–	32	–	–	–	27.1	69.5	–
Nc1ccccc1C(=O)CC1OC(=O)c2ccccc21 (centres undefined)	–	> 100	–	> 100	–	> 100	–	> 100	–	> 100	–	> 100	–	> 100	–	–	–	> 100	> 100	–
CCCCCC[N+](C)(C)Cc1ccc(C[N+](C)(C)CCCCCC)cc1	–	12.8	–	–	–	–	–	9.34	–	7.37	–	–	–	7.17	–	–	–	5.38	27.7	–
CC(C)=CC(=O)C/C(=N\NC(N)=S)C(=O)Nc1ccc(Cl)cc1	–	> 100	–	> 100	–	–	–	> 100	–	> 100	–	–	–	–	–	> 100	–	> 100	> 100	–
Clc1ccc(SC(/C=C/NNC2=NC(c3ccccc3)C(c3ccccc3)=NN2)c2ccccc2)cc1 (centres undefined)	–	92	–	> 100	–	–	–	46	–	> 100	–	–	–	32.6	–	–	–	> 100	> 100	–

Source: PubChem BioAssay (NCI)
